Reference: ChEMBL document CHEMBL5365500, “Development and Antibacterial Properties of 4-[4-(Anilinomethyl)-3-phenylpyrazol-1-yl]benzoic Acid Derivatives as Fatty Acid Biosynthesis Inhibitors” (J Med Chem, 2023)
In brackets after ≈: the same amount, converted by molar mass. Activity calls are given as the source filed them. The calls are words filed in the database; no cut-off is given here.

Columns and labels:
Staphylococcus aureus [1] = assay: In vivo antimicrobial activity against Staphylococcus aureus USA300 infected in Caenorhabditis elegans AU37 nematodes assessed as viability of nematodes incubated for 5 days by susceptibility test; type: functional; conditions: USA300, 120 h, time 5 day
Staphylococcus aureus [2] = assay: Antimicrobial activity against clinical isolate Staphylococcus aureus Smu21 assessed as inhibition of growth measured after 20 to 24 hrs incubation by CLSI method; type: functional; conditions: time 20-24 hrs
Cell membrane [3] = assay: Induction of membrane permeability in Staphylococcus aureus ATCC 700699 assessed as increase in fluorescence at 0.5 to 2 times of MIC incubated for 15 mins measured for 1 hr by propidium iodide/real time fluorescence based flow cytometry; type: subcellular; conditions: time 75.0 min
Staphylococcus aureus [4] = assay: Antimicrobial activity against clinical isolate Staphylococcus aureus Smu109 assessed as inhibition of growth measured after 20 to 24 hrs incubation by CLSI method; type: functional; conditions: time 20-24 hrs
Staphylococcus aureus [5] = assay: Antimicrobial activity against Staphylococcus aureus UAB159 assessed as inhibition of growth measured after 20 to 24 hrs incubation by CLSI method; type: functional; conditions: time 20-24 hrs
Bacillus subtilis = assay: Antimicrobial activity against antibiotic-resistant Bacillus subtilis ATCC 6623 assessed as inhibition of visible growth measured after 20 to 24 hrs incubation by CLSI method; type: functional; conditions: time 20-24 hrs
Staphylococcus aureus [6] = assay: Antimicrobial activity against Staphylococcus aureus ATCC 25923 assessed as inhibition of biofilm formation by measuring prevention of turbidity after 24 hrs incubation by Real-time monitoring method; type: functional
Staphylococcus aureus [7] = assay: Bactericidal activity in antibiotic-resistant Staphylococcus aureus ATCC 700699 assessed as reduction in viable cell count at 4 times of MIC measured upto 24 hrs by time kill assay; type: functional, organism-based
Staphylococcus aureus [8] = assay: Antimicrobial activity against methicilline-resistant Staphylococcus aureus ATCC 700699 persisters assessed as bacterial killing at 32 time of MIC concentration measured for every 2 hrs upto 8 hrs by Persisters time course assay; type: functional, organism-based
Enterococcus faecalis [9] = assay: Antimicrobial activity against antibiotic-susceptible Enterococcus faecalis ATCC 29212 assessed as eradication of biofilm measured after 24 hrs incubation by Calgary method; type: functional
Staphylococcus aureus [10] = assay: Antimicrobial activity against clinical isolate Staphylococcus aureus Smu9 assessed as inhibition of growth measured after 20 to 24 hrs incubation by CLSI method; type: functional; conditions: time 20-24 hrs
Staphylococcus aureus [11] = assay: Antimicrobial activity against methicilline-resistant Staphylococcus aureus ATCC 700699 persisters assessed as reduction in initial persister concentration at 8 times of MIC concentration measured for 8 hrs by Persisters time course assay; type: functional
Erythrocyte [12] = assay: Hemolytic activity in sheep red blood cells assessed as hemolysis at 16 to 32 ug/ml incubated for 30 mins relative to control; type: toxicity, cell-based, Ovis aries; conditions: 0.5 h, dose 16-32 µg/ml
Staphylococcus aureus [13] = assay: Antimicrobial activity against clinical isolate Staphylococcus aureus Smu57 assessed as inhibition of growth measured after 20 to 24 hrs incubation by CLSI method; type: functional; conditions: time 20-24 hrs
[14] = tested on: Panel NCI-60 (60 carcinoma cell lines); assay: Cytotoxicity against human panel NCI-60 (60 carcinoma cell lines)cells assessed as cell viability at 10 uM measured after 24 hrs by resazurin assay; type: functional, cell-based
Staphylococcus aureus [15] = assay: Antimicrobial activity against antibiotic-resistant Staphylococcus aureus ATCC 33591 assessed as inhibition of visible growth measured after 20 to 24 hrs incubation by CLSI method; type: functional; conditions: time 20-24 hrs
Staphylococcus aureus [16] = assay: Antimicrobial activity against antibiotic-resistant Staphylococcus aureus ATCC 33592 assessed as inhibition of visible growth measured after 20 to 24 hrs incubation by CLSI method; type: functional; conditions: time 20-24 hrs
Staphylococcus aureus [17] = assay: In vivo antimicrobial activity against Staphylococcus aureus Newman infected in Caenorhabditis elegans AU37 nematodes assessed as viability of nematodes incubated for 5 days by susceptibility test; type: functional; conditions: 120 h, time 5 day
Enterococcus faecium = assay: Antimicrobial activity against Enterococcus faecium […] assessed as inhibition of biofilm formation after 24 hrs incubation by Real-time monitoring method; type: functional
Cell membrane [18] = assay: Induction of membrane permeability in Staphylococcus aureus ATCC 700699 assessed as increase in fluorescence at 8 times of MIC incubated for 15 mins measured for 1 hr by propidium iodide/real time fluorescence based flow cytometry; type: subcellular
Staphylococcus aureus [19] = assay: Antimicrobial activity against methicilline-resistant Staphylococcus aureus ATCC 700699 persisters assessed as reduction in initial persister concentration at 16 times of MIC concentration measured for 2 hrs by Persisters time course assay; type: functional, organism-based
Staphylococcus aureus [20] = assay: In vivo antimicrobial activity against Staphylococcus aureus UAMS-1 infected in Caenorhabditis elegans AU37 nematodes assessed as viability of nematodes incubated for 5 days by susceptibility test; type: functional; conditions: UAMS-1, 120 h, time 5 day
Staphylococcus aureus [21] = assay: Antimicrobial activity against methicilline-resistant Staphylococcus aureus ATCC 700699 persisters assessed as reduction in initial persister concentration at 2 times of MIC concentration measured for 2 to 8 hrs by Persisters time course assay; type: functional, organism-based; conditions: time 2-8 hrs
Enterococcus faecalis [22] = assay: Antimicrobial activity against Enterococcus faecalis ATCC 29212 assessed as inhibition of biofilm formation by measuring prevention of turbidity after 24 hrs incubation by Real-time monitoring method; type: functional
Staphylococcus aureus [23] = assay: Resistance development in methicillin-sensitive Staphylococcus aureus ATCC 25923 assessed as fold increase in MIC at 0.5 times of MIC measured at 4 to 6 th passages by multistep resistance assay; type: functional
Staphylococcus aureus [24] = assay: Antimicrobial activity against Staphylococcus aureus ATCC 25923 assessed as inhibition of visible growth measured after 20 to 24 hrs incubation by CLSI method; type: functional; conditions: time 20-24 hrs
Erythrocyte [25] = assay: Hemolytic activity in sheep red blood cells assessed as hemolysis at 64 ug/ml incubated for 30 mins relative to control; type: toxicity, cell-based, Ovis aries; conditions: 0.5 h, at 64 µg/mL
Staphylococcus aureus [26] = assay: Antimicrobial activity against clinical isolate Staphylococcus aureus Smu81 assessed as inhibition of growth measured after 20 to 24 hrs incubation by CLSI method; type: functional; conditions: time 20-24 hrs
Staphylococcus aureus [27] = assay: Antimicrobial activity against antibiotic-resistant Staphylococcus aureus ATCC BAA-2312 assessed as inhibition of visible growth measured after 20 to 24 hrs incubation by CLSI method; type: functional; conditions: time 20-24 hrs
Staphylococcus aureus [28] = assay: Antimicrobial activity against methicillin-resistant Staphylococcus aureus USA300 infected in liquid-based Caenorhabditis elegans co-infection model assessed as rescue of worms by measuring viability at 2 ug/ml incubated for 5 days (reference value: 20%); type: functional; conditions: dose 2 µg/ml; time 5 day
[29] = Toxicity in Caenorhabditis elegans AU37 assessed as survival at 4 ug/ml measured for 4 days; conditions: 96 h, dose 4 µg/ml, time 4 day
[30] = Toxicity in Caenorhabditis elegans AU37 assessed as survival at 20 ug/ml measured for 4 days; conditions: at 20 µg/mL, time 4 day
Staphylococcus aureus [31] = assay: Antimicrobial activity against methicillin-resistant Staphylococcus aureus USA300 infected in liquid-based Caenorhabditis elegans co-infection model assessed as rescue of worms by measuring viability at 1 ug/ml incubated for 5 days (reference value: 20%); type: functional; conditions: dose 1 µg/ml; time 5 day
Cell membrane [32] = assay: Induction of membrane permeability in Staphylococcus aureus ATCC 700699 assessed as increase in fluorescence intensity at 4 times of MIC incubated for 15 mins measured for 1 hr by propidium iodide/real time fluorescence based flow cytometry Rvb = 3.5); conditions: time 75.0 min
Cell membrane [33] = assay: Induction of membrane permeability in Staphylococcus aureus ATCC 700699 assessed as increase in fluorescence intensity at 2 times of MIC incubated for 15 mins measured for 1 hr by propidium iodide/real time fluorescence based flow cytometry Rvb = 3.5); type: subcellular; conditions: time 75.0 min
Cell membrane [34] = assay: Induction of membrane permeability in Staphylococcus aureus ATCC 700699 assessed as increase in fluorescence intensity at 1 times of MIC incubated for 15 mins measured for 1 hr by propidium iodide/real time fluorescence based flow cytometry Rvb = 3.5); conditions: time 75.0 min
Cell membrane [35] = assay: Induction of membrane permeability in Staphylococcus aureus ATCC 700699 assessed as increase in fluorescence at 4 times of MIC incubated for 15 mins measured for 1 hr by propidium iodide/real time fluorescence based flow cytometry; type: subcellular; conditions: time 75.0 min
Enterococcus faecalis [36] = assay: Antimicrobial activity against antibiotic-susceptible Enterococcus faecalis ATCC 29212 assessed as inhibition of biofilm formation by measuring prevention of turbidity after 24 hrs incubation by Real-time monitoring method; type: functional
Staphylococcus aureus [37] = assay: Antimicrobial activity against methicillin-resistant Staphylococcus aureus USA300 infected in liquid-based Caenorhabditis elegans co-infection model assessed as rescue of worms by measuring viability at 4 ug/ml incubated for 5 days (reference value: 20%); type: functional; conditions: dose 4 µg/ml; time 5 day

SMILES	MIC (Staphylococcus aureus [1])	MIC (Staphylococcus aureus [2])	Activity (Cell membrane [3])	MIC (Staphylococcus aureus [5])	MIC (Bacillus subtilis)	MIC (Staphylococcus aureus [6])	Activity (Staphylococcus aureus [7])	Activity (Staphylococcus aureus [8])	MIC (Staphylococcus aureus [10])	Activity (Erythrocyte [12])	Activity [14]	MIC (Staphylococcus aureus [15])	MIC (Staphylococcus aureus [16])	MIC (Staphylococcus aureus [17])	MBIC (Enterococcus faecium)	Activity (Cell membrane [18])	MIC (Staphylococcus aureus [20])	MIC (Enterococcus faecalis [22])	Activity (Erythrocyte [25])	MIC (Staphylococcus aureus [26])	other results
O=C(O)c1ccc(-n2cc(CNc3ccc(Br)c(C(F)(F)F)c3)c(-c3cccc(F)c3)n2)cc1	1 mg/L (≈ 1.87 µM)	4 mg/L (≈ 7.49 µM)	inactive	4 mg/L (≈ 7.49 µM)	0.5 mg/L (≈ 0.936 µM)	2 mg/L (≈ 3.74 µM)	Active	Active	4 mg/L (≈ 7.49 µM)	Non-Toxic	inactive	0.5 mg/L (≈ 0.936 µM)	0.5 mg/L (≈ 0.936 µM)	1 mg/L (≈ 1.87 µM)	8 µg/mL	inactive	1 mg/L (≈ 1.87 µM)	8 mg/L (≈ 15 µM)	< 10%	4 mg/L (≈ 7.49 µM)	MIC (Staphylococcus aureus [4]): 2 mg/L (≈ 3.74 µM); MBEC (Enterococcus faecalis [9]): 2 µg/mL; log(activity) (Staphylococcus aureus [11]): 6; MIC (Staphylococcus aureus [13]): 2 mg/L (≈ 3.74 µM); Activity (Staphylococcus aureus [19]): Active; Activity (Staphylococcus aureus [21]): inactive; fold change (FC) (Staphylococcus aureus [23]): 2; MIC (Staphylococcus aureus [24]): 1 mg/L (≈ 1.87 µM); MIC (Staphylococcus aureus [27]): 1 mg/L (≈ 1.87 µM)
O=C(O)c1ccc(-n2cc(CNc3ccc(Cl)c(C(F)(F)F)c3)c(-c3cccc(F)c3)n2)cc1	2 mg/L (≈ 4.08 µM)	4 mg/L (≈ 8.17 µM)	inactive	4 mg/L (≈ 8.17 µM)	0.5 mg/L (≈ 1.02 µM)	4 mg/L (≈ 8.17 µM)	Active	Active	2 mg/L (≈ 4.08 µM)	Non-Toxic	inactive	1 mg/L (≈ 2.04 µM)	1 mg/L (≈ 2.04 µM)	1 mg/L (≈ 2.04 µM)	8 µg/mL	inactive	1 mg/L (≈ 2.04 µM)	8 mg/L (≈ 16.3 µM)	< 10%	4 mg/L (≈ 8.17 µM)	Activity (Staphylococcus aureus [28]): 90%; Activity [29]: Non-Toxic; survival at 96 h, 20 ug/ml [30]: > 80%; Activity (Staphylococcus aureus [31]): 90%; Activity (Cell membrane [32]): 95.6%; Activity (Cell membrane [33]): 32.3%; Activity (Cell membrane [34]): 22.3%; Activity (Cell membrane [35]): Active; MBBC (Enterococcus faecalis [36]): 16 µg/mL; Activity (Staphylococcus aureus [37]): 90%; MIC (Staphylococcus aureus [27]): 1 mg/L (≈ 2.04 µM)
